# Reference: US20040109903A1, “Method for extended storage of viable and pathogen-safe blood and blood components using carbon monoxide” (priority 2002, published 2004)
# How the values were obtained:
# platelets [1] = assay: Platelet viability: leakage of LDH from stored platelets; type: cell-based, human
# Experimental: (§1) PC fractions were identically prepared from CO pretreated or untreated blood by consecutive centrifugation in a sterile environment using blood bank conditions. Bicarbonate (4% of PC volume) is than added from a stock solution of 750 mM while agitation to yield a final bicarbonate concentration of 30 mM. Next, the PC is treated with CO in a similar manner to whole blood. Alternatively, rather than applying a vacuum, the containers were flushed for 10 min. with sterile CO while agitating the containers, which were then sealed. The containers were allowed to stay at room temperature of 20-24° C.PRP platelets were treated similarly.
# The viability of the platelets under storage was tested in the form of PC because platelets are currently stored in this form, in order to be able to store and use the extra plasma in PRP separately. However, the PC environment lacks both red cells and plasma, such that platelets in this environment are more sensitive than in the PRP form to loss of viability. Without wishing to be limited to a single hypothesis, platelets in the form of PC may experience changes in pH, and therefore may lose the necessary pH neutrality of the environment. The viability of platelets stored as PC was investigated according to two parameters: drop of pH of the environment, and loss of membrane integrity of the cells themselves, leading to leakage of cellular proteins.
# With regard to leakage of LDH, cell viability can also be evaluated according to membrane integrity. LDH (lactic dehydrogenase) is a stable enzyme which is normally active inside cells; when these cells have loss of membrane integrity, LDH is leaked outside the cells, such that higher levels of LDH activity are correlated with reduced platelet viability. The presence of LDH activity in platelet-free solution samples was measured in order to assess the viability of the platelet-containing fractions from which the samples were taken. […]
# Pseudomonas aeraginosa = assay: Growth of inoculated Pseudomonas aeraginosa in platelets stored as PRP; type: cell-based; conditions: 20-24° C., inoculated at 16 CFU/ml, compared with air (FIG. 4)
# Experimental: as §1, with “Next, the PC is treated with CO in a similar manner to whole blood.” left out
# (§2) Control blood samples were packed under air in the same containers without any additional treatment allowing air transfer. In some experiments control of inert gas like nitrogen were used to exchange the air in the same manner as CO. […]
# (§3) For FIGS. 2-6, platelets were stored as PRP with agitation at room temperature (20-24° C.) in a blood bank rocking plane as for regular blood bank under air with gas exchange option (AIR); or sealed under nitrogen atmosphere (N2) or carbon monoxide atmosphere (CO). […] The amount of inoculated bacteria was adjusted to a range of 10-100 CFU/ml before inoculation, in which the exact final number of bacteria was been measured by plating the stock on suitable agar plates allowing growth and counting (the final initial counts are given in each case).
# Salmonella thyphimurium [2] = assay: Growth of Salmonella thyphimurium in cells-free plasma; type: cell-based; conditions: plasma alone as source of nutrition (FIG. 8)
# Excerpt: (§4) Whole blood or its factions were inoculated with pathogenic bacteria. Growth of the bacteria at room temperature was followed under different atmospheres (gas environments ). The blood fractions were platelets in plasma (PRP); concentrated platelets (PC) as currently stored in blood banks after removal of about three quarters of the plasma and the cell-free blood plasma.
# FIG. 8 compares the growth of Salmonella thyphimurium in cells-free plasma under AIR, N2 and CO.
# Staphilococcus aereus = assay: Growth of inoculated Staphilococcus aereus in platelets stored as PRP; type: cell-based; conditions: 20-24° C., inoculated at 18 CFU/ml, compared with air (FIG. 6)
# Experimental: as §1, with “Next, the PC is treated with CO in a similar manner to whole blood.” left out
# as §2, §3
# Yersinia Enterocolitica = assay: Growth of inoculated Yersinia Enterocolitica in whole blood under different atmospheres; type: cell-based; conditions: room temperature, about 20 bacteria per ml inoculated, compared with air (FIG. 1)
# Experimental: Freshly drawn whole blood was obtained from a human donor under sterile conditions, and stored in gas impermeable bags having a volume of at least 1.5 times that of the blood volume. The gas environment (or atmosphere) in the bag was then replaced by an atmosphere containing sterile CO by applying a low level vacuum with a water pump of 20 mm Hg. CO was immediately flushed through a 0.25 micron sterile filter. The bag was sealed and agitated for 15 minutes to allow equilibration. This procedure was repeated three times thereby exchanging the atmosphere in the bag and blood with CO. Saturation with carbon monoxide can be identified in hemoglobin in samples of the treated blood according to typical changes of the light absorption spectrum of the hemoglobin in the visible region by a shift from 577 nm (typical of oxy-hemoglobin) to 569 nm (typical of carbomonoxy-hemoglobin).
# (§5) Control blood samples were packed under air in the same containers without any additional treatment allowing air transfer. In some experiments control of inert gas like nitrogen were used to exchange the air in the same manner as CO.
# Whole blood or its factions were inoculated with pathogenic bacteria. Growth of the bacteria at room temperature was followed under different atmospheres (gas environments ). […]
# Bulkholderia cepasea = assay: Growth of inoculated Bulkholderia cepasea in platelets stored as PRP; type: cell-based; conditions: 20-24° C., inoculated at 12 CFU/ml, compared with air (FIG. 5)
# Experimental: as §1, with “Next, the PC is treated with CO in a similar manner to whole blood.” left out
# as §2, §3
# human body = conditions: cited from earlier work
# platelets [3] = assay: Ability of stored platelets to aggregate upon activation by collagen (Plateletworks kit); type: cell-based, human
# Experimental: An assessment of the potential of platelets to form aggregates upon activation by an agonist, preferably collagen, a typical physiological agonist, was performed, to determine the potential effect of carbon monoxide on this physiological function of platelets. The assay was performed as follows.
# Fresh blood bank platelets, prepared as platelet concentrates (PC), were used. Each PC unit was divided. One part was stored without carbon monoxide treatment, which is the current method of preserving PC in blood banks. The other portion was sealed under carbon monoxide as previously described. Samples were preserved under sterile conditions at 20-23° C., while shaking gently. The ability of platelets to aggregate upon activation by collagen as an agonist was tested daily using a kit by Helena Laboratories (USA), called the Plateletworks kit. To allow platelet count and reduce anticoagulant activity, the PC was diluted 1:10 with the physiological buffer PBS pH 7.3. The whole individual platelets present were counted prior and after addition of the agonist, for this example collagen.
# Therefore, the stored PC samples (control and stored under carbon monoxide) were tested for their ability to aggregate following two hours shaking under air after being removed from storage.
# platelets [4] = conditions: via binding to Guanylate Cyclase; Brune and Ullrich 1987; cited from earlier work
# Bacilus cereus = assay: Growth of inoculated Bacilus cereus in platelets stored as PRP; type: cell-based; conditions: 20-24° C., inoculated at 18 CFU/ml, compared with air (FIG. 2)
# Experimental: as §1, with “Next, the PC is treated with CO in a similar manner to whole blood.” left out
# as §2, §3
# Salmonella thyphimurium [5] = assay: Growth of Salmonella thyphimurium in PRP or PC fractions; type: cell-based; conditions: compared with air (FIG. 7)
# Experimental: as §1, §5
# as §4, with “plasma. […]” for “plasma.”
# E. coli (strain O 157) = assay: Growth of inoculated E. coli in platelets stored as PRP; type: cell-based; conditions: 20-24° C., inoculated at 25 CFU/ml, compared with air (FIG. 3)
# Experimental: as §1, with “Next, the PC is treated with CO in a similar manner to whole blood.” left out
# as §2, §3
# bacteria = conditions: upon photoactivation; Gambro BCT abstracts 2001; cited from earlier work
# platelets [6] = conditions: autologous transfusions performed in primates; cited from earlier work
compound,measurement,setting,value
[C-]#[O+] [carbon monoxide],"LDH activity in the supernatant, a measure of leakage","platelets [1]; PC, air vs CO vs CO with sodium bicarbonate (FIG. 10)","similar, high levels"
same,viability of platelets in PC (LDH leakage),"platelets [1]; PC, no additional bicarbonate, compared with air (FIG. 10)",lost much faster than stored in air
same,"leakage of LDH (LDH activity in supernatant), platelets stored as PRP","platelets [1]; PRP, compared with air, data not shown",equal or even somewhat lower than under air
same,growth of Pseudomonas aeraginosa in PRP,Pseudomonas aeraginosa,significantly inhibited
same,growth of Salmonella thyphimurium in cells-free plasma,Salmonella thyphimurium [2],inhibition of pathogen growth was maintained
same,growth of Staphilococcus aereus in PRP,Staphilococcus aereus,significantly inhibited
same,growth of inoculated Yersinia Enterocolitica in whole blood,Yersinia Enterocolitica,completely inhibited
same,growth of Bulkholderia cepasea in PRP,Bulkholderia cepasea,eliminated
same,"safety threshold or TLV, equivalent inhalation",human body; equivalent of 8 hours per day at 20 ppm,10^4 ppm/minute
same,safety threshold or TLV for the human body,human body; inhalation of 8 hours per day of air containing the gas,20 ppm
same,ability to aggregate in response to collagen,"platelets [3]; PC stored under carbon monoxide, carbon monoxide replaced by air",regained their ability to aggregate
same,formation of aggregates upon exposure to collagen,"platelets [3]; PC stored under carbon monoxide, tested immediately after being exposed to air",did not form aggregates
same,fraction of platelets able to form aggregates,"platelets [3]; PC, day 11, two hours shaking under air after storage, compared with same PC unit stored under air (FIGS. 11A-11C)",larger fraction
same,aggregation of platelets,platelets [4],can inhibit aggregation
same,growth of Bacilus cereus in PRP,Bacilus cereus,significantly inhibited
same,growth of Salmonella thyphimurium in PC,"Salmonella thyphimurium [5]; PC, count at time zero 32 CFU/ml",inhibited
same,growth of Salmonella thyphimurium in PRP,"Salmonella thyphimurium [5]; PRP, count at time zero 16 CFU/ml",significantly inhibited
same,growth of E. coli (strain O 157) in PRP,E. coli (strain O 157),significantly inhibited
"N#N [nitrogen, reference compound]",growth of Pseudomonas aeraginosa in PRP,Pseudomonas aeraginosa,little or no effect
same,growth of Staphilococcus aereus in PRP,Staphilococcus aereus,little or no effect
same,growth of inoculated Yersinia Enterocolitica in whole blood,Yersinia Enterocolitica,completely inhibited
same,growth of Bulkholderia cepasea in PRP,Bulkholderia cepasea,little or no effect
same,growth of Bacilus cereus in PRP,Bacilus cereus,little or no effect
same,growth of E. coli (strain O 157) in PRP,E. coli (strain O 157),little or no effect
Cc1cc2nc3c(=O)[nH]c(=O)nc-3n(C[C@H](O)[C@H](O)[C@H](O)CO)c2cc1C [riboflavin],effectiveness for bacterial inactivation,bacteria,variable effectiveness
same,platelet survival rates,platelets [6],may even decrease platelet survival rates
